From the supplement of paper PMC13380429

How the values were obtained:
Details in all cases: 72 h
Caco-2 [1] = assay: cell viability relative to DMSO; higher = less toxic
Calu-3 [2] = assay: as above
Vero E6 [3] = assay: as above
HepG2 [4] = assay: as above
U2OS [5] = assay: as above
Caco-2 [6] = assay: drug sensitivity score (DSS) for viability; higher = more toxic; extreme values may be limits of the assay
Calu-3 [7] = assay: as above
Vero E6 [8] = assay: as above
HepG2 [9] = assay: as above
U2OS [10] = assay: as above
Caco-2 [11] = assay: relative viability EC50 (midpoint between 100% and the lowest measured viability); higher = less toxic
Calu-3 [12] = assay: as above
Vero E6 [13] = assay: as above
HepG2 [14] = assay: as above
U2OS [15] = assay: as above

Row | SMILES | cell viability (Caco-2 [1]; 1 nM) | cell viability (Caco-2 [1]; 10 nM) | cell viability (Caco-2 [1]; 100 nM) | cell viability (Caco-2 [1]; 1000 nM) | cell viability (Caco-2 [1]; 10000 nM) | cell viability (Calu-3 [2]; 1 nM) | cell viability (Calu-3 [2]; 10 nM) | cell viability (Calu-3 [2]; 100 nM) | cell viability (Calu-3 [2]; 1000 nM) | cell viability (Calu-3 [2]; 10000 nM) | cell viability (Vero E6 [3]; 1 nM) | cell viability (Vero E6 [3]; 10 nM) | cell viability (Vero E6 [3]; 100 nM) | cell viability (Vero E6 [3]; 1000 nM) | cell viability (Vero E6 [3]; 10000 nM) | cell viability (HepG2 [4]; 1 nM) | cell viability (HepG2 [4]; 10 nM) | cell viability (HepG2 [4]; 100 nM) | cell viability (HepG2 [4]; 1000 nM) | cell viability (HepG2 [4]; 10000 nM) | cell viability (U2OS [5]; 1 nM) | cell viability (U2OS [5]; 10 nM) | cell viability (U2OS [5]; 100 nM) | cell viability (U2OS [5]; 1000 nM) | cell viability (U2OS [5]; 10000 nM) | drug sensitivity score (Caco-2 [6]) | drug sensitivity score (Calu-3 [7]) | drug sensitivity score (Vero E6 [8]) | drug sensitivity score (HepG2 [9]) | drug sensitivity score (U2OS [10]) | relative viability EC50 (Caco-2 [11]) | relative viability EC50 (Calu-3 [12]) | relative viability EC50 (Vero E6 [13]) | relative viability EC50 (HepG2 [14]) | relative viability EC50 (U2OS [15])
1 | CC(C)(C)NS(=O)(=O)c1cncc(-c2cc(F)c3nc(N)nn3c2)c1 | 95.6% | 91.8% | 106% | 87.7% | 107% | 96.1% | 82.5% | 95.2% | 84.2% | 97.1% | 93.5% | 99.3% | 94% | 96.3% | 100% | 94.7% | 106% | 90.7% | 101% | 105% | 98.5% | 92.5% | 97.9% | 95.8% | 95.9% | 0 | 0 | 0 | 0 | 0 | > 10 µM | > 10 µM | > 10 µM | > 10 µM | > 10 µM
2 | CC(C)(N)c1nc(-c2ccc(OC(F)(F)F)cc2)c[nH]1 | 95.8% | 96.5% | 91.3% | 92% | 88% | 107% | 102% | 90.1% | 105% | 113% | 95.9% | 97.7% | 94.6% | 94.9% | 107% | 96% | 107% | 101% | 117% | 104% | 98.2% | 94.1% | 96.5% | 95.6% | 95.4% | 0.1 | 0 | 0 | 0 | 0 | > 10 µM | > 10 µM | > 10 µM | > 10 µM | > 10 µM
3 | CC(C)C1=C2[C@H]3CC[C@@H]4[C@@]5(C)CC[C@H](OC(=O)CC(C)(C)C(=O)O)C(C)(C)[C@@H]5CC[C@@]4(C)[C@]3(C)CC[C@@]2([C@@H](O)CN(CCN(C)C)Cc2ccc(Cl)cc2)CC1=O | 96.3% | 98.7% | 97.7% | 100% | 97.2% | 95.7% | 91.8% | 106% | 104% | 105% | 102% | 106% | 106% | 99.5% | 105% | 96.7% | 105% | 100% | 99.6% | 95.4% | 95.3% | 97.8% | 94.3% | 94.9% | 94.2% | 0 | 0 | 0 | 0 | 0 | > 10 µM | > 10 µM | > 10 µM | > 10 µM | > 10 µM
4 | CCC(CC)Nc1cc(C)nc(Oc2c(C)cc(C)cc2C)c1C | 90.2% | 96.6% | 101% | 99.9% | 100% | 94.3% | 94.5% | 98.6% | 96.5% | 100% | 96.8% | 96.1% | 90.1% | 94.3% | 109% | 94.9% | 104% | 93.1% | 108% | 103% | 104% | 95.7% | 102% | 98.5% | 97% | 0 | 0 | 0 | 0 | 0 | > 10 µM | > 10 µM | > 10 µM | > 10 µM | > 10 µM
5 | CCCCOc1c(C(=O)c2c(F)cc(C)cc2F)c[nH]c2nncc1-2 | 104% | 102% | 94% | 82.9% | 77.7% | 94.9% | 86.1% | 71.1% | 60.7% | 89.4% | 102% | 97.4% | 94.1% | 84.5% | 84.9% | 96.7% | 99.8% | 95.1% | 81.4% | 80.8% | 98% | 101% | 102% | 113% | 95.6% | 2.7 | 0 | 1.6 | 2.9 | 0 | > 10 µM | > 10 µM | > 10 µM | > 10 µM | > 10 µM
6 | CCCCn1c(-c2ccccc2)nc(-c2ccccc2)c1CN(Cc1ccc2c(c1)OCO2)Cc1ccc2c(c1)OCO2 | 94.2% | 105% | 95.1% | 92.7% | 77.5% | 107% | 102% | 107% | 101% | 96.7% | 106% | 101% | 100% | 101% | 97.7% | 102% | 102% | 96.3% | 95.5% | 89.4% | 95.8% | 97.6% | 91.4% | 94% | 85.6% | 1.2 | 0 | 0 | 0 | 0.2 | > 10 µM | > 10 µM | > 10 µM | > 10 µM | > 10 µM
7 | CN(C)c1cccc(-c2c3c(=O)n(-c4ccccc4Cl)[nH]c3cc(=O)n2C)c1 | 100% | 98.3% | 101% | 93.1% | 84.6% | 89.9% | 91.3% | 100% | 97.7% | 92.6% | 101% | 104% | 99.6% | 102% | 104% | 99.2% | 104% | 94.2% | 97.2% | 87.6% | 99.8% | 96.6% | 101% | 95.2% | 93.7% | 0.8 | 0 | 0 | 0 | 0 | > 10 µM | > 10 µM | > 10 µM | > 10 µM | > 10 µM
8 | COC(=O)[C@H](Cc1ccc([N+](=O)[O-])cc1)NC(=O)c1cccc2ccccc12 | 99.8% | 98.7% | 99.4% | 95.6% | 89% | 101% | 95.8% | 92.8% | 100% | 109% | 94.4% | 96.7% | 90.8% | 87.4% | 101% | 102% | 97.1% | 105% | 101% | 107% | 94.2% | 99% | 96.6% | 99.5% | 100% | 0 | 0 | 0 | 0 | 0 | > 10 µM | > 10 µM | > 10 µM | > 10 µM | > 10 µM
9 | COc1c(C)c(C(=O)c2ccc(N)c(C(=O)O)c2)n2ccccc12 | 89.7% | 88.7% | 87.1% | 100% | 106% | 96.6% | 102% | 96% | 98.2% | 103% | 99.9% | 98.7% | 99.4% | 100% | 106% | 100% | 108% | 101% | 93.4% | 119% | 99.9% | 99.2% | 96.9% | 98.9% | 90.4% | 0 | 0 | 0 | 0 | 0 | > 10 µM | > 10 µM | > 10 µM | > 10 µM | > 10 µM
10 | COc1cc(N)c(Cl)cc1C(=O)CCC1CCN(CCNS(C)(=O)=O)CC1 | 95.1% | 97.3% | 95.5% | 92.3% | 92.3% | 99.6% | 92.6% | 88.3% | 99.1% | 95.9% | 99.7% | 101% | 100% | 93.9% | 98.3% | 100% | 100% | 98.2% | 89% | 95.5% | 92.6% | 101% | 94.2% | 99.2% | 92.6% | 0 | 0 | 0 | 0.3 | 0 | > 10 µM | > 10 µM | > 10 µM | > 10 µM | > 10 µM
11 | COc1ccccc1CN[C@H]1CCCN[C@H]1c1ccccc1 | 107% | 92.7% | 109% | 98.9% | 104% | 93.7% | 93.6% | 93.7% | 104% | 98.7% | 101% | 103% | 98% | 105% | 92.1% | 94.2% | 103% | 91.1% | 99.6% | 94.2% | 99% | 94.6% | 96.2% | 93.1% | 97.4% | 0 | 0 | 0 | 0 | 0 | > 10 µM | > 10 µM | > 10 µM | > 10 µM | > 10 µM
12 | Cc1nc2ccccc2c(-c2ccc3c4c(ccnc24)CCO3)c1[C@H](OC(C)(C)C)C(=O)O | 109% | 98.1% | 110% | 113% | 113% | 88.3% | 102% | 85.5% | 109% | 105% | 111% | 99.3% | 102% | 101% | 95.2% | 103% | 84.3% | 95.2% | 94.4% | 87.1% | 97.6% | 97.2% | 99% | 101% | 99.1% | 0 | 0 | 0 | 0.1 | 0 | > 10 µM | > 10 µM | > 10 µM | > 10 µM | > 10 µM
13 | Cn1ccc2cc(NC(=O)Nc3cccnc3)ccc21 | 100% | 97.9% | 88.7% | 84.5% | 95.8% | 108% | 97.6% | 98.1% | 94.9% | 98% | 105% | 102% | 103% | 97.7% | 103% | 91.5% | 102% | 92.3% | 95.8% | 97.2% | 105% | 98.8% | 101% | 97.1% | 100% | 0.2 | 0 | 0 | 0 | 0 | > 10 µM | > 10 µM | > 10 µM | > 10 µM | > 10 µM
14 | O=C(O)[C@H]1CC[C@H](c2cc3cccnc3c(-c3cccc(F)c3)n2)CC1 | 102% | 103% | 108% | 98% | 109% | 112% | 95.1% | 91.1% | 95% | 107% | 101% | 99.3% | 96.3% | 99% | 86.3% | 96.3% | 98.9% | 101% | 92.2% | 90.1% | 104% | 98.4% | 96.9% | 96.5% | 99.6% | 0 | 0 | 0.2 | 0 | 0 | > 10 µM | > 10 µM | > 10 µM | > 10 µM | > 10 µM
